Experiments:
in vivo [1] = assay: in vivo; set-up: species or system NMR-I mice; conditions: mouse, iv, 5.7 mg/kg
Experimental: Each treatment group was composed of 3 animals. […] The plasma samples were analyzed by the procedure of Mross et al., (J. Chromatograph. 530 (1990), 192-199). […] The columns were dried for 10 minutes at 10 mbar. […] The residue was taken up in 50 μl (0.02 mol/l Na phosphate/acetonitrile, pH 3.9; 7:3, v/v) and analyzed by means of HPLC using a 4.6 mm×25 cm Merck Lichrocart C 18 RP 5 μm column. The flow rate was 1.5 ml/min. The excitation wavelength was 480 nm and the emission wavelength was 580 nm.

[2] = clinical use; cited from earlier work
in vivo [3] = conditions: mouse, iv, 5.7 mg/kg
Experimental: Female NMR-I mice (28-32 g, 6-8 weeks) were obtained from the Animal Breeding Institute, Hannover Germany. The same doses (5.7 mg/kg) were injected in each case into the cordal vein of the mice. Each treatment group was composed of 3 animals. After 1, 24 and 72 hours the mice were anaesthetized with CO2. Blood was collected from the mice by puncture of the heart and stored in heparinized Eppendorf vessels. Tissue samples from the mice (liver, heart etc.) were rinsed in 0.9% NaCl solution and stored at -70° C.
In order to detect doxorubicin and its metabolites in the individual organs, the tissue samples (about 200 mg in each case) were homogenized with a micro-dismembrator (Braun Melsungen AG, Germany). Doxorubicin and its metabolites were treated with an extraction solution at pH 3 (16.5% w/v AgNO3 in acetonitrile/water; 6:4, v/v), in order to release the anthracyclines from a complex with DNA and to precipitate the proteins. After addition of an internal standard (epirubicin) and centrifugation, the supernatant was applied directly to the HPLC column.

Compound: COc1cccc2c1C(=O)c1c(O)c3c(c(O)c1C2=O)C[C@@](O)(C(=O)CO)C[C@@H]3O[C@H]1C[C@H](N)[C@H](O)[C@H](C)O1 [free doxorubicin, doxorubicin]
- concentration at 1 h (in vivo [1]): 500 ng/mL
- cardiac toxicity [2]: high cardiac toxicity
- remaining at 1 h (in vivo [3]): 23%
